# Read-outs that look alike come from different tables or passages of the source.
# Columns and labels:
# Test in all cases: Spectral shift (Dianthus) binding assay
# Conditions in all cases: read-out: dissociation constant (Kd)
# [1] = target: T1, AMPKα2 (T172D)–α2KD (Homo sapiens, UniProt P54646, T172D)
# T1 construct: human AMPK-α2 KD (α2KD; residues 6 to 280); made in house; host or cells: E. coli BL21(DE3)-RIL
# Description: (§1) The binding affinity of BAY-3827 to α2KD, AMPK (T172D)-α2KD, or AMPK complexes α2β2γ1 and α2β2γ3 was measured by Dianthus (Nano Temper Technologies). BAY-3827 was diluted from a 100 mM stock in DMSO to 0.5 mM working concentration in the assay buffer (PBS with 0.005% Tween-20) with a final DMSO concentration of 2.5%, which was kept constant throughout the concentration gradient of the compound. For additional experiments, assay buffer containing Hepes 25 mM, NaCl 250 mM, and 0.005% Tween-20 was used to optimize the assay, enhancing signal-to-noise ratios. His-tagged α2KD, T172D-α2KD, or His-tagged AMPK-α2β2γ1 or α2β2γ3 complexes were labeled with His-tag labeling dye (His-Tag Labeling Kit RED-tris-NTA 2nd Generation). The ratio of fluorescence intensities (670/650 nm) over BAY-3827 concentration gradient ranging from 250 μM down to 0.015 μM. The concentration gradient was prepared by 1:1 serial dilution over 16 steps, with a setup of two to three technical replicates for each concentration. The binding experiments were repeated three times, and the mean Kd values of the inhibitor are reported in the appropriate figure alongside ± SEM (micromolar) displaying a representative graph. A concentration of 50 nM of the corresponding protein target was used in each performed assay. The ratio of fluorescence intensities was measured over BAY-3827 concentration gradient in GraphPad Prism using nonlinear regression (one site-total binding). Data quality was assessed by monitoring XYZ scans for each well to detect air bubbles or aggregation where present following the manufacturer’s instructions.
# (§2) Data points are plotted as means ± SEM. Data were inputted, and all statistical tests were performed using GraphPad Prism, version 10.1.0. One- or two-way analysis of variance (ANOVA) statistical tests were conducted using Tukey’s correction for multiple comparisons; specific test will be stated in the figure legend. Significance was accepted as P < 0.05. N number and statistical details for each experiment are reported in each figure legend. […] To estimate IC50 values, nonlinear regression fitting was conducted using the model (Inhibitor) versus response—variable slope in GraphPad Prism (version 10.1.0) and estimating values reported in nanomolar. To estimate binding affinities (Kd) from performed spectral shift binding assays, data were fitted using a one-site total model [Y = BmaxX/(Kd + X) + NSX + Background] where X is the ligand concentration, Bmax represents the maximum binding, and NS is the slope of the nonlinear regression of Y/X. Values are reported in means ± SEM in micromolar.
# [2] = target: T2, AMPKα2 kinase domain (α2KD), WT (Homo sapiens, UniProt P54646)
# T2 construct: human AMPK-α2 KD (α2KD; residues 6 to 280); made in house; host or cells: E. coli BL21(DE3)-RIL
# T2 sequence (P54646 6-280): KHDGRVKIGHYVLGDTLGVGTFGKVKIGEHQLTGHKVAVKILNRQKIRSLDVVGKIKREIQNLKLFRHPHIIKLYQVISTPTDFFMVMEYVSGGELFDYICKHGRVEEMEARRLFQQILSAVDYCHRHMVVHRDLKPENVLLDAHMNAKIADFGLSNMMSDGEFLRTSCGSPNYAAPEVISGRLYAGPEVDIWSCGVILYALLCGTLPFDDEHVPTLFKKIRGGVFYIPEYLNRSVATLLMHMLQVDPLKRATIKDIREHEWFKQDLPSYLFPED
# Description: as §1, §2
# [3] = target: T3, nonphosphorylated AMPKα2β2γ1 complex (Homo sapiens, UniProt O43741+P54619+P54646)
# T3 construct: For expression of full-length AMPKα2β2γ1, α2β2γ2, and α2β2γ3 complexes; made in house; host or cells: E. coli BL21(DE3)-RIL
# T3 sequence (P54646 whole entry): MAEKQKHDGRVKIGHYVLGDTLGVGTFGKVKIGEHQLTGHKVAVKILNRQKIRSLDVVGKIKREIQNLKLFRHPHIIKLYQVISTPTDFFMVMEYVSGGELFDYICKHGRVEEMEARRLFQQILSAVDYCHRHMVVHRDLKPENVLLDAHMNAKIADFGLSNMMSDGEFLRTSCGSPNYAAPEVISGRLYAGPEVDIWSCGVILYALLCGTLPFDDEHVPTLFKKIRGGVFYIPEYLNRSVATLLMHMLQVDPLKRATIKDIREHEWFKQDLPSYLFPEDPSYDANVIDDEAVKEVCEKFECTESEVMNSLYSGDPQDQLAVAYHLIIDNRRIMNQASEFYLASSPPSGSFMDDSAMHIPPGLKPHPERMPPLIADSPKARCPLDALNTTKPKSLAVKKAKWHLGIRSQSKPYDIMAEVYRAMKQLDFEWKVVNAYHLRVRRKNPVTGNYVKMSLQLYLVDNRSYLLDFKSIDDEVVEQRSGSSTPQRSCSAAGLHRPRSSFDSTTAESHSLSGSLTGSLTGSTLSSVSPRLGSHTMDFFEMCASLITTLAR
# T3 sequence (O43741 whole entry partner): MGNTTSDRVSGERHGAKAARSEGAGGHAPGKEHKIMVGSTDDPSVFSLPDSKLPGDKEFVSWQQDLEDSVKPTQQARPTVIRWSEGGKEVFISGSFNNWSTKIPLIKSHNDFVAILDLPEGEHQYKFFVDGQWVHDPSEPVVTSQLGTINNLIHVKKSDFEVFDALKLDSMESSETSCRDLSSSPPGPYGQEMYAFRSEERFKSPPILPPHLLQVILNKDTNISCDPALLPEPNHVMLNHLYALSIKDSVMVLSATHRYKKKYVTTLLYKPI
# T3 sequence (P54619 whole entry partner): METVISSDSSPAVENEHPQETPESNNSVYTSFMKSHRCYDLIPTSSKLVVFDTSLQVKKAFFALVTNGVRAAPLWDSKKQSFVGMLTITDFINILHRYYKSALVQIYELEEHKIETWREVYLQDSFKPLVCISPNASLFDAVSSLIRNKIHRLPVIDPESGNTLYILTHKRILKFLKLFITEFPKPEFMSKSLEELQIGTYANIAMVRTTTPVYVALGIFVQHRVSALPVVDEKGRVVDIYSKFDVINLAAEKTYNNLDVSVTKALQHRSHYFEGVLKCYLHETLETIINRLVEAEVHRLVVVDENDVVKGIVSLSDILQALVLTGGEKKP
# Description: as §1, §2
# [4] = target: T4, nonphosphorylated AMPKα2β2γ3 complex (Homo sapiens, UniProt O43741+P54646+Q9UGI9)
# T4 construct: For expression of full-length AMPKα2β2γ1, α2β2γ2, and α2β2γ3 complexes; made in house; host or cells: E. coli BL21(DE3)-RIL
# T4 sequence (P54646 whole entry): as the sequence (P54646 whole entry) above
# T4 sequence (O43741 whole entry partner): as the sequence (O43741 whole entry partner) above
# T4 sequence (Q9UGI9 whole entry partner): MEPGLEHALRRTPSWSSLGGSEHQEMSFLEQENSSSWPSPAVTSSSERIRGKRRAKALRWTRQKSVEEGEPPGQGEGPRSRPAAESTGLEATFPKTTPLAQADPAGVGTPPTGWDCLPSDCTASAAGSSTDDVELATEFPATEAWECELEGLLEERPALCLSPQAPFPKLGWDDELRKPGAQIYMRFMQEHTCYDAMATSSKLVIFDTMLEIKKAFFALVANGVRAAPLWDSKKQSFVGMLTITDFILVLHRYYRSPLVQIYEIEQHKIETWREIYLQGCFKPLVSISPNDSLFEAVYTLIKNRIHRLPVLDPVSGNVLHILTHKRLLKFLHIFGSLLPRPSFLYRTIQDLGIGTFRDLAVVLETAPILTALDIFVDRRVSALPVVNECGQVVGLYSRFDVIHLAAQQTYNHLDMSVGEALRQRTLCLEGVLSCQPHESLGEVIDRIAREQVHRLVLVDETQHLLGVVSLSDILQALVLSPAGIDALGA
# Description: as §1, §2
# T1 sequence (P54646 6-280 T172D): as the sequence (P54646 6-280) above, with T167D counted along it
compound,measurement,setting,value
"CCc1ccccc1C(=O)Nc1n[nH]c2c(C)c(F)c(C3C(C#N)=C(C)N(C)C(C)=C3C#N)cc12 [BAY-3827, N-[5-(3,5-dicyano-1,2,6-trimethyl-4H-pyridin-4-yl)-6-fluoro-7-methyl-1H-indazol-3-yl]-2-ethylbenzamide]",Kd,[1]; +3 mM DTT,9.01 ± 1.85 µM
same,Kd,[1]; - DTT,8.65 ± 1.38 µM
same,Kd,[2]; +3 mM DTT,28.6 ± 12.5 µM
same,Kd,[2]; without DTT,1.23 µM
same,Kd,[3],11.3 ± 5.23 µM
same,Kd,[4],21.8 ± 8.51 µM

# Reference: paper PMC12372887, “Mechanism and cellular actions of the potent AMPK inhibitor BAY-3827” (Science Advances, 2025)
